# Measured values reported in ChEMBL document CHEMBL1201862, “PubChem BioAssay data set” (2004).
#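 The compound was tested at five concentrations on cells cultured in 96-well plates, with a 48-hour exposure period. GI50 marks 50% less growth.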 Calls of active or inactive are those of the source. Cut-off read from the data, not from the text of the source: active = GI50 up to about 1.1 µM and inactive = higher.
# Assays:
# Assay in all cases: inhibition of tumour cell growth, NCI panel, 48 h
# [1] = test system: 786-0
# [2] = test system: CAKI-1
# [3] = test system: COLO 205
# [4] = test system: DU-145
# [5] = test system: Hs-578T
# [6] = test system: K562
# [7] = test system: LOX IMVI
# [8] = test system: MCF7
# [9] = test system: Malme-3M
# [10] = test system: NCI-H522
# [11] = test system: NCI/ADR-RES
# [12] = test system: OVCAR-5
# [13] = test system: PC-3
# [14] = test system: SF-268
# [15] = test system: SK-MEL-2
# [16] = test system: SW-620
# [17] = test system: T47D
# [18] = test system: U-251
# [19] = test system: A498
Compound,GI50 [1],GI50 [2],GI50 [3],GI50 [4],GI50 [5],GI50 [6],GI50 [7],GI50 [8],GI50 [9],GI50 [10],GI50 [11],GI50 [12],GI50 [13],GI50 [14],GI50 [15],GI50 [16],GI50 [17],GI50 [18],GI50 [19]
COc1cccc(C2CC(C)(O)Oc3cc4c(cc32)OCO4)c1 (stereo not given),33.7 µM (inactive),29 µM (inactive),20.7 µM (inactive),31.3 µM (inactive),16.4 µM (inactive),19.5 µM (inactive),22.3 µM (inactive),17.9 µM (inactive),26.2 µM (inactive),7.21 µM (inactive),16.3 µM (inactive),35.8 µM (inactive),25.1 µM (inactive),30.6 µM (inactive),9.53 µM (inactive),7.31 µM (inactive),27.8 µM (inactive),23.4 µM (inactive),–
O=c1[nH]c2ccc(O)cc2o1,> 100 µM (inactive),> 100 µM (inactive),> 100 µM (inactive),> 100 µM (inactive),> 100 µM (inactive),> 100 µM (inactive),–,> 100 µM (inactive),0.601 µM (active),> 100 µM (inactive),> 100 µM (inactive),> 100 µM (inactive),> 100 µM (inactive),> 100 µM (inactive),–,> 100 µM (inactive),> 100 µM (inactive),> 100 µM (inactive),> 100 µM (inactive)
CNc1nc2c(C)ccc3nc(N(C)C)nc-3c2n1C,> 10 µM (inactive),> 10 µM (inactive),> 10 µM (inactive),> 10 µM (inactive),> 10 µM (inactive),> 10 µM (inactive),–,> 10 µM (inactive),> 10 µM (inactive),> 10 µM (inactive),> 10 µM (inactive),> 10 µM (inactive),> 10 µM (inactive),> 10 µM (inactive),> 10 µM (inactive),> 10 µM (inactive),> 10 µM (inactive),> 10 µM (inactive),> 10 µM (inactive)
Cc1nc(N)c(N2CCN(S(=O)(=O)N(Cc3ccccc3)Cc3ccccc3)CC2)c(O)n1,28.9 µM (inactive),–,23.3 µM (inactive),20.7 µM (inactive),33.3 µM (inactive),> 100 µM (inactive),> 100 µM (inactive),72.3 µM (inactive),25.1 µM (inactive),> 10 µM (inactive),71.3 µM (inactive),28 µM (inactive),20.4 µM (inactive),28.6 µM (inactive),55.2 µM (inactive),69.7 µM (inactive),15.3 µM (inactive),16.9 µM (inactive),> 10 µM (inactive)
Sc1nnc(Cc2ccc(Cl)cc2)[nH]1,61.4 µM (inactive),56.2 µM (inactive),48 µM (inactive),67 µM (inactive),16.4 µM (inactive),48.8 µM (inactive),38.1 µM (inactive),51.9 µM (inactive),29.1 µM (inactive),–,42.1 µM (inactive),> 100 µM (inactive),49.1 µM (inactive),–,> 100 µM (inactive),85.5 µM (inactive),29.4 µM (inactive),58.1 µM (inactive),57.4 µM (inactive)
C=C1NC(=O)C(CC(C(=O)C(=O)Nc2c(C)cccc2C(C)(C)C)C(=O)c2ccc3ccccc3c2)C(=O)N1 (stereo not given),> 100 µM (inactive),> 100 µM (inactive),> 100 µM (inactive),> 100 µM (inactive),> 100 µM (inactive),> 100 µM (inactive),> 100 µM (inactive),> 100 µM (inactive),–,–,> 100 µM (inactive),> 100 µM (inactive),> 100 µM (inactive),> 100 µM (inactive),> 100 µM (inactive),> 100 µM (inactive),> 100 µM (inactive),> 100 µM (inactive),> 100 µM (inactive)
O=C(NC(Cc1ccccc1)P(=O)(O)c1ccccc1)OCc1ccccc1 (stereo not given),> 100 µM (inactive),> 100 µM (inactive),> 100 µM (inactive),> 100 µM (inactive),> 100 µM (inactive),> 100 µM (inactive),> 100 µM (inactive),> 100 µM (inactive),> 100 µM (inactive),> 100 µM (inactive),> 100 µM (inactive),> 100 µM (inactive),> 100 µM (inactive),> 100 µM (inactive),–,> 100 µM (inactive),> 100 µM (inactive),> 100 µM (inactive),–
COc1ccc(CC2C3=C(CCCC3)CCN2C)cc1 (stereo not given),> 100 µM (inactive),> 100 µM (inactive),> 100 µM (inactive),> 100 µM (inactive),77.6 µM (inactive),39 µM (inactive),> 100 µM (inactive),> 100 µM (inactive),> 100 µM (inactive),–,> 100 µM (inactive),> 100 µM (inactive),> 100 µM (inactive),43.1 µM (inactive),> 100 µM (inactive),> 100 µM (inactive),69.2 µM (inactive),> 100 µM (inactive),> 100 µM (inactive)
